“Also recorded” adds a separate entry of the source. Where two headings read alike, the source gives them in different places.
Columns and labels:
[1] = format: in vitro ADME; settings: 0.1 mM, pH 7.4
Method: (§1) Pooled plasma/serum solutions (4 ml) were prepared to the correct strength by dilution of plasma with phosphate buffer pH 7.4 (e.g. for a 10% solution 0.4 ml of plasma/serum was added to 3.6 ml of phosphate buffer pH 7.4). Following equilibration of the plasma/serum sample at 37±0.5° C. 100 μl of a stock solution of test compound in acetonitrile (1×10^−4 M) was added and 250 μl aliquots were removed at specified time intervals. Samples were transferred to 1.5 ml Eppendorf tubes containing 500 μl of a 2% w/v solution of nSO4.7H2O (water:acetonitrile, 1:1). Tubes were vortexed for 2 minutes, then centrifuged at 10,000 rpm for 3 minutes at room temperature. Supernatant was aspirated off and analysed by HPLC. The concentration of test compound and metabolites were determined with reference to calibration curves run on that day in the same concentration range and under the same experimental conditions. In order to mimic conditions during the first passage of the drugs after intestinal absorption selected compounds were incubated in phosphate buffer at 37° C. in the presence of microsomes from human liver (HLM) and intestinal epithelium (HIM). The metabolic fate of the esters under these conditions was also determined by RPHPLC by measuring the concentration of drug and metabolites in the medium as a function of time. The identity of participating enzymes was confirmed by using purified enzyme in the case of plasma (BuChE) and by repeating the hydrolysis experiments in the presence of esterase specific inhibitors—isoOMPA for BuChE and BNPP for carboxylesterase. The BuChE activity of plasma and microsomal samples was determined using the Ellman assay (Ellman et al., 1964).
Qualitative hydrolysis screening of Is-2-aspirinate-5-salicylate 2 (0.1 mM) was studied using guinea pig, hamster, rabbit and monkey plasma. The purpose of this test was to determine a suitable species for biological testing and preclinical development. The results were also expected to confirm the role of the human enzymes already identified because these are variously distributed in laboratory animals.

[2] = Hydrolysis in the presence of human liver microsomes (HLM), with or without esterase inhibitors; format: in vitro ADME
Method: Pooled plasma/serum solutions (4 ml) were prepared to the correct strength by dilution of plasma with phosphate buffer pH 7.4 (e.g. for a 10% solution 0.4 ml of plasma/serum was added to 3.6 ml of phosphate buffer pH 7.4). Following equilibration of the plasma/serum sample at 37±0.5° C. 100 μl of a stock solution of test compound in acetonitrile (1×10^−4 M) was added and 250 μl aliquots were removed at specified time intervals. Samples were transferred to 1.5 ml Eppendorf tubes containing 500 μl of a 2% w/v solution of nSO4.7H2O (water:acetonitrile, 1:1). Tubes were vortexed for 2 minutes, then centrifuged at 10,000 rpm for 3 minutes at room temperature. Supernatant was aspirated off and analysed by HPLC. The concentration of test compound and metabolites were determined with reference to calibration curves run on that day in the same concentration range and under the same experimental conditions. […] The metabolic fate of the esters under these conditions was also determined by RPHPLC by measuring the concentration of drug and metabolites in the medium as a function of time. […] The BuChE activity of plasma and microsomal samples was determined using the Ellman assay (Ellman et al., 1964). […]

[3] = system: rabbit liver carboxylesterase; format: in vitro ADME; settings: 0.1 mM
[4] = target: T1, purified human serum BuChE (Homo sapiens, UniProt P06276); assay: Hydrolysis by purified human serum butyrylcholinesterase; format: in vitro ADME; settings: purified butyrylcholinesterase
T1 construct: Purified human serum butyrylcholinesterase (EC 3.1.1.8); purchased Sigma-Aldrich; host or cells: human serum
Method: as §1

[5] = system: platelet aggregation in human whole blood; assay: Whole blood aggregation studies (impedance method); format: cell-based
Method: A 500 μl aliquot of blood was mixed with 500 μl of physiological saline and allowed to incubate at 37° C. for 10 mins in the incubation well of a Chrono-Log Whole Blood Aggregometer model 591/592. The sample was then transferred to the assay well, baseline was established and appropriate volume of reagent as above was added. Aggregation was monitored over 6 mins with impedance output recorded on a chart recorder. When testing inhibitors whole blood was pre-incubated with appropriate concentrations of inhibitor in DMSO at 37° C. for a specified length of time before adding the stimulant (10 mins with stirring). Three different aggregating agents, AA (0.5 mM), ADP (10 μM) and Collagen (5 μg/ml) were used. […] DMSO in high concentrations (above 0.25%) can induce a concentration dependent change in platelet cytoplasmic ionised calcium. Before each experiment a control was run using PRP to obtain normal aggregating responses. A sample was also incubated for 10 min at 37° C. with 10 μl DMSO to ensure it was having no inhibitory effect on the aggregation response.

[6] = system: collagen-induced human platelet aggregation; assay: Collagen-induced human platelet aggregation in vitro; format: cell-based; settings: listed as ISAS
Method: (§2) Blood was collected from healthy volunteers who had not taken any drugs known to affect platelet function for at least 14 days prior to the study. Platelet rich plasma (PRP) and washed platelet suspensions (2.5×10^8 platelets/ml) were prepared from blood as previously described.
(§3) Platelet aggregation was measured by light aggregometry as previously described. Briefly, PRP and washed platelet samples (2.5×10^8/ml) were placed in a whole blood ionized calcium lumi-aggregometer (Chronolog Corp., Havertown, Pa., U.S.A), and (BIO/DATA CORPORATION) and incubated for 10 min at 37° C., with stirring at 900 r.p.m., prior to the addition of aggregating agents. Aggregation was initiated by the addition of agonists, and monitored by Aggro-Link software for at least 6 min. For experiments using inhibitors, aggregation was initiated after 10 min preincubation with these compounds
(§4) Collagen at different concentrations (3-5 ug/ml) was also used to induce platelet aggregation. The submaximal concentrations of agonists, i.e. the concentrations that gave approximately 95% of the maximal aggregation were used to study the effects of inhibitors of aggregation. Results were expressed in percent changes in maximal light transmission, with 100% representing light transmission of platelet medium alone.

[7] = system: ADP-induced platelet aggregation; assay: ADP-induced platelet aggregation in PRP; format: cell-based, human
Method: as §2, §3, §4

[8] = system: esterases found in CACO-2 cells; assay: Stability towards esterases found in CACO-2 cells; format: in vitro ADME
in vitro = settings: human, plasma, pH 7.4

T1 sequence (P06276 29-602): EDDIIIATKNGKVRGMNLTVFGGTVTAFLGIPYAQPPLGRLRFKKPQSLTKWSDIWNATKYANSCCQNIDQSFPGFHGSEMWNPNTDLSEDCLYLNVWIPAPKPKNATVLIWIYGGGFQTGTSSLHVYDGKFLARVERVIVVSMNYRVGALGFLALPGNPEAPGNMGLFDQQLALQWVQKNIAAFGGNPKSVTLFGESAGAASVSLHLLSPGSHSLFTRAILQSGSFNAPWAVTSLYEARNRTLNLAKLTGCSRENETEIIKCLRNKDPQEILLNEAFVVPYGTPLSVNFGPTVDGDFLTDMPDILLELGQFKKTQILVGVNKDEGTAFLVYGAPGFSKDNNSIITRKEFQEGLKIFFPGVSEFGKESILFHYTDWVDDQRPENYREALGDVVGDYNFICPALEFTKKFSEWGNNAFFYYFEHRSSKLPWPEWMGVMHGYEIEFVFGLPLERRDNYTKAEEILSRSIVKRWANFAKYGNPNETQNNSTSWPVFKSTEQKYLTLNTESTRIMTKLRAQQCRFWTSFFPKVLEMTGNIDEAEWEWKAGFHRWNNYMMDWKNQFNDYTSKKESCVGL

CC(=O)Oc1ccccc1C(=O)O[C@H]1CO[C@H]2[C@@H]1OC[C@H]2OC(=O)c1ccccc1O [Compound 2, Isosorbide-2-aspirinate-5-salicylate]
Drug disappearance time ([1]; guinea pig, 1 hr): present after 1 hr
Drug disappearance time ([1]; hamster): 20 min
Drug disappearance time ([1]; monkey): 5 min
Drug disappearance ([2]; HLM/isoOMPA (10 uM), conc drug […]): 10 min
Drug disappearance ([2]; human, 0.1 mM, pH 7.4): 10 min
Drug disappearance [3]: 5 min
conversion to aspirin in the presence of purified butyrylcholinesterase [4]: almost complete conversion to aspirin
IC50 ([5]; Homo sapiens, Platelet, arachidonic acid, impedance method, read-out: IC50, platelet aggregation towards arachidonic acid in human whole blood): 17 µM
potency in inhibition of platelet aggregation in whole blood ([5]; all of the aggregatory stimuli: AA (0.5 mM), ADP (10 μM), Collagen (5 μg/ml)): significantly greater potency than aspirin or ISDA
potency relative to aspirin, inhibition of collagen-induced human platelet aggregation [6]: significantly more potent than aspirin; also recorded: significantly more potent than ASA
potency relative to aspirin, inhibition of ADP-induced platelet aggregation [7]: significantly more potent than aspirin
stability towards esterases found in CACO-2 cells [8]: stable
half-life at 2.4 µM (in vitro): 2 min
